In brackets after ≈: the same amount, converted by molar mass. Several values for one entry are separate records, joined by “and”; a condition that tells them apart may be missing. Equal values may be shown once. Marks after values point to notes of the source that are not given here.
Key:
[1] = Microsomal stability assay (half-life), mouse; assay type: in vitro ADME; conditions: Mouse (CD1) microsomes, read-out: Microsomal stability T1/2
Excerpt: (§1) Table 20 provides results of in vitro and in vivo pharmacokinetics performed for each of the represented compounds.

mice = test: Fear reconsolidation behavioral study; assay type: in vivo; conditions: 2 mg/kg immediately before and 30 min after each of 4 dosed cue-recall sessions, versus DMSO
Procedure: 3 CS-US pairings were performed: tone is 30 seconds long co-terminating with 2 second, 1 mA shock. No drug or vehicle was administered.
Subsequent to the acquisition, and following the schedule provided, above, recall and reconsolidation sessions ensued. The cage was altered in context (floor board, walls, vanilla scent). The same paradigm as acquisition was used for reconsolidation and recall exposures but no shock was delivered. The following procedure was followed: (1) 2 min habituation to box; (2) 30 sec tones; (3) 1 min it is.
Injections of ADG-205c or DMSO at dosage of 2 mg/kg are administered at the following time points: Immediately before reconsolidation/recall; and then 30 minutes following reconsolidation/recall.

[2] = In vivo PK, IV dose, Terminal - brain (brain availability); parameters: species or system Rat (SD); conditions: for Brain concentration, mean / Brain concentration, individual animal: IV 1 mg/kg
Procedure: Table 3 and FIG. 5 depict the brain availability of ADG I-204, ADG I-205, ADG I-206, and ADG I-207 after IV administration of 1 mg/kg dose.

[3] = Microsomal stability assay (half-life), rat; assay type: in vitro ADME; conditions: Rat (SD) microsomes, read-out: Microsomal stability T1/2
Excerpt: as §1

[4] = In vivo PK, IV dose, plasma; parameters: species or system Rat (SD); conditions: for Plasma concentration, mean / Plasma concentration, individual animal: IV 1 mg/kg
Excerpt: as §1
(§2) Tables 4 and 5 depict the summary of rat plasma sample concentrations after administration of ADG I-204. FIG. 6 provides a summary of rat plasma and brain concentrations.

[5] = In vivo PK, oral gavage, plasma; parameters: species or system Rat (SD); conditions: Rat, PO 5 mg/kg, BQL limit 1.00 ng/mL, listed as ADG I-205, 5 mg/kg
[6] = Turbidity-based aqueous solubility; assay type: physicochemical; conditions: aqueous solution (composition not given), kinetic from dmso stock, read-out: highest soluble concentration
Excerpt: as §1

H3K9ac = test: Western blot, differentiated CAD cell lysates, H3K9ac levels; assay type: cell-based; conditions: differentiated CAD cells, DMSO = 100.00%
Excerpt: as §1

[7] = Microsomal stability assay (half-life), human; assay type: in vitro ADME; conditions: Human microsomes, read-out: Microsomal stability T1/2
Excerpt: as §1

[8] = In vivo PK, oral gavage, plasma; parameters: species or system Rat (SD); conditions: SD, rat, plasma, po, 5 mg/kg
Excerpt: as §1, §2

[9] = Protein binding via Rapid Equilibrium Dialysis - plasma; assay type: in vitro ADME; conditions: Rat (SD) plasma, 2 μM
Excerpt: as §1

SMILES: COCCNC(=O)Nc1ccc2nc(-c3cccs3)c(-c3cccs3)nc2c1 [ADG-205c, 1-(2,3-di(thiophen-2-yl)quinoxalin-6-yl)-3-(2-methoxyethyl)urea]
- half-life at 2 μM [1]: 4.72 min
- Fear response (freezing) after reconsolidation sessions (mice): observable reduced fear response
- Brain concentration, mean ([2]; Rat (SD), 4 hr, BQL limit 10.0 ng/g (204, 206), 20.0 ng/g (205, 207), listed as ADG I-205, 1 mg/kg): 23 ng/g
- Brain concentration, mean ([2]; Rat (SD), 8 hr, BQL limit 10.0 ng/g (204, 206), 20.0 ng/g (205, 207)): BQL
- Brain concentration, mean ([2]; Rat (SD), 24 hr, BQL limit 10.0 ng/g (204, 206), 20.0 ng/g (205, 207)): BQL
- Brain concentration, individual animal ([2]; Rat, 0.0830 hr, third animal received only 70% of the test article, listed as ADG I-205, 1 mg/kg): 544 ng/g and 487 ng/g and 213*** ng/g
- Brain concentration, individual animal ([2]; Rat, 1.00 hr, listed as ADG I-205, 1 mg/kg): 102 ng/g and 171 ng/g
- Brain concentration, individual animal ([2]; Rat, 4.00 hr, BQL limit 10.0 ng/g (204, 206), 20.0 ng/g (205, 207), listed as ADG I-205, 1 mg/kg): BQL
- Brain concentration, individual animal ([2]; Rat, 8.00 hr, BQL limit 10.0 ng/g (204, 206), 20.0 ng/g (205, 207)): BQL
- Brain concentration, individual animal ([2]; Rat, 24.0 hr, BQL limit 10.0 ng/g (204, 206), 20.0 ng/g (205, 207)): BQL
- concentration at 0.083 h ([2]; SD, rat, brain, iv, 1 mg/kg, Rat (SD), 0.083 hr): 415 ng/g
- concentration at 1 h ([2]; SD, rat, brain, iv, 1 mg/kg, Rat (SD), 1 hr, read-out: Brain concentration, mean): 135 ng/g
- concentration at 4 h ([2]; SD, rat, brain, iv, 1 mg/kg, Rat (SD), 4 hr, BQL limit 10.0 ng/g (204, 206), 20.0 ng/g (205, 207), read-out: Brain concentration, mean): 23.4 ng/g
- concentration at 1 h ([2]; SD, rat, brain, iv, 1 mg/kg, Rat, 1.00 hr, read-out: Brain concentration, individual animal): 132 ng/g
- concentration at 4 h ([2]; SD, rat, brain, iv, 1 mg/kg, Rat, 4.00 hr, BQL limit 10.0 ng/g (204, 206), 20.0 ng/g (205, 207), read-out: Brain concentration, individual animal): 23.4 ng/g
- half-life at 2 μM [3]: 11.6 min
- Plasma concentration, mean ([4]; Rat (SD), 8 hr, terminal, listed as ADG I-205, 1 mg/kg): 0.029 µg/mL
- Plasma concentration, mean ([4]; Rat (SD), 24 hr, terminal, BQL limit 1.00 ng/mL (ADG I-205: 2.00 ng/mL), 1 mg/kg): 0.003 µg/mL
- Plasma concentration, individual animal ([4]; Rat, 0.0830 hr, terminal, third animal received only 70% of the test article, listed as ADG I-205, 1 mg/kg): 2310 ng/mL and 1700 ng/mL and 865*** ng/mL
- Plasma concentration, individual animal ([4]; Rat, 0.500 hr, not terminal (animals 4, 5 and 6), listed as ADG I-205, 1 mg/kg): 8520** ng/mL and 1380 ng/mL and 1470 ng/mL
- Plasma concentration, individual animal ([4]; Rat, 1.00 hr, terminal, listed as ADG I-205, 1 mg/kg): 895 ng/mL and 1190 ng/mL
- Plasma concentration, individual animal ([4]; Rat, 4.00 hr, terminal, BQL limit 1.00 ng/mL (ADG I-205: 2.00 ng/mL), 1 mg/kg): 187 ng/mL and 92.3 ng/mL
- Plasma concentration, individual animal ([4]; Rat, 8.00 hr, terminal, BQL limit 1.00 ng/mL (ADG I-205: 2.00 ng/mL), 1 mg/kg): 27.0 ng/mL and 31.9 ng/mL
- Plasma concentration, individual animal ([4]; Rat, 24.0 hr, terminal, BQL limit 1.00 ng/mL (ADG I-205: 2.00 ng/mL), 1 mg/kg): BQL
- concentration at 0.083 h ([4]; SD, rat, plasma, iv, 1 mg/kg, Rat (SD), 0.083 hr, terminal, read-out: Plasma concentration, mean): 1.63 µg/mL
- concentration at 0.5 h ([4]; SD, rat, plasma, iv, 1 mg/kg, Rat (SD), 0.500 hr, not a terminal time point (animals 4, 5 and 6)): 3.79 µg/mL
- concentration at 1 h ([4]; SD, rat, plasma, iv, 1 mg/kg, Rat (SD), 1 hr, terminal, read-out: Plasma concentration, mean): 1.04 µg/mL
- concentration at 4 h ([4]; SD, rat, plasma, iv, 1 mg/kg, Rat (SD), 4 hr, terminal, read-out: Plasma concentration, mean): 0.14 µg/mL
- concentration at 8 h ([4]; SD, rat, plasma, iv, 1 mg/kg, Rat (SD), 8 hr, terminal, read-out: Plasma concentration, mean): 0.0291 µg/mL
- concentration at 24 h ([4]; SD, rat, plasma, iv, 1 mg/kg, Rat (SD), 24 hr, terminal, BQL limit 1.00 ng/mL (ADG I-205: 2.00 ng/mL), read-out: Plasma concentration, mean): 0.00263 µg/mL
- concentration at 1 h ([4]; SD, rat, plasma, iv, 1 mg/kg, Rat, 1.00 hr, terminal, read-out: Plasma concentration, individual animal): 1.03 µg/mL
- concentration at 8 h ([4]; SD, rat, plasma, iv, 1 mg/kg, Rat, 8.00 hr, terminal, BQL limit 1.00 ng/mL (ADG I-205: 2.00 ng/mL), read-out: Plasma concentration, individual animal): 0.0285 µg/mL
- concentration at 24 h ([4]; SD, rat, plasma, iv, 1 mg/kg, Rat, 24.0 hr, terminal, BQL limit 1.00 ng/mL (ADG I-205: 2.00 ng/mL), read-out: Plasma concentration, individual animal): 0.00263 µg/mL
- Plasma concentration, individual animal ([5]; 0.250 hr): 0.0304 µg/mL and 0.073 µg/mL and 0.147 µg/mL
- Plasma concentration, individual animal ([5]; 0.500 hr): 0.145 µg/mL and 0.298 µg/mL and 0.669 µg/mL
- Plasma concentration, individual animal ([5]; 1.00 hr): 0.55 µg/mL and 0.906 µg/mL
- Plasma concentration, individual animal ([5]; 4.00 hr): 0.71 µg/mL and 0.43 µg/mL and 0.938 µg/mL
- Plasma concentration, individual animal ([5]; 8.00 hr): 0.531 µg/mL and 0.235 µg/mL and 0.297 µg/mL
- Plasma concentration, individual animal ([5]; 24.0 hr): 0.00351 µg/mL and 0.00148 µg/mL and 0.00419 µg/mL
- solubility [6]: 5 µM (≈ 2.05 µg/mL)
- H3K9ac levels normalized to H3 and DMSO control (H3K9ac; 1 uM): 21.62%
- H3K9ac levels normalized to H3 and DMSO control (H3K9ac; 5 uM): 17.18%
- H3K9ac levels normalized to H3 and DMSO control (H3K9ac; 10 uM): 14.26%
- H3K9ac levels normalized to H3 and DMSO control (H3K9ac; 20 uM): 21.52%
- H3K9ac levels normalized to H3 and DMSO control (H3K9ac; 50 uM): 29.67%
- H3K9ac levels normalized to H3 and DMSO control (H3K9ac; 100 uM): 16.42%
- half-life at 2 μM [7]: 27.8 min
- concentration at 0.25 h ([8]; Rat (SD), 0.25 hr, BQL = below quantitation limit (1.00 ng/mL), read-out: Plasma concentration, mean): 0.0835 µg/mL
- concentration at 0.5 h ([8]; Rat (SD), 0.5 hr, BQL = below quantitation limit (1.00 ng/mL), read-out: Plasma concentration, mean): 0.371 µg/mL
- concentration at 1 h ([8]; Rat (SD), 1 hr, BQL = below quantitation limit (1.00 ng/mL), read-out: Plasma concentration, mean): 0.641 µg/mL
- concentration at 4 h ([8]; Rat (SD), 4 hr, BQL = below quantitation limit (1.00 ng/mL)): 0.693 µg/mL
- concentration at 8 h ([8]; Rat (SD), 8 hr, BQL = below quantitation limit (1.00 ng/mL), read-out: Plasma concentration, mean): 0.354 µg/mL
- concentration at 24 h ([8]; Rat (SD), 24 hr, BQL = below quantitation limit (1.00 ng/mL), read-out: Plasma concentration, mean): 0.00306 µg/mL
- concentration at 1 h ([8]; Rat, 1.00 hr, BQL limit 1.00 ng/mL, read-out: Plasma concentration, individual animal): 0.466 µg/mL
- Protein binding, plasma: % Protein free [9]: 0.2915 % Protein free
